The text below walks through data of article PMC8779140 (Pharmaceutics, 2022).

The target in one data set is T1, SARS-CoV-2 PL^pro (Severe acute respiratory syndrome coronavirus 2, UniProt P0DTD1).
T1 construct: The synthetic gene of SARS-CoV-2 PL^pro was cloned into the pET16b vector; made in house; host or cells: E. coli BL21(DE3)
Put plainly: biochemical.

For another data set, the target named is T2, human TMPRSS2 (Homo sapiens, UniProt O15393).
T2 construct: the purified MBP-tagged TMPRSS2 (residues 256-492) activity; made in house; host or cells: E. coli BL21 (DE3)
T2 sequence (O15393 256-492): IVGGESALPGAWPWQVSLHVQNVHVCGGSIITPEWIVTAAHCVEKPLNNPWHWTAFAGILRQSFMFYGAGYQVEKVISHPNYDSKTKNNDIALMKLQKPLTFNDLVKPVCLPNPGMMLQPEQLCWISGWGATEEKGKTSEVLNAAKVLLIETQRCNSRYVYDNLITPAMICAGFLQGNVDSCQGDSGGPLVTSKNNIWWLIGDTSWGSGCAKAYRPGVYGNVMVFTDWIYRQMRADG
Put plainly: Inhibition assay of human TMPRSS2 (fluorogenic peptide). The format is biochemical. The protocol:
Cloning of TMPRSS2 was performed as previously reported. The synthetic gene encoding the catalytic domain of human TMPRSS2 (residues 256–492) was cloned into the pMAL-c5X vector (New England Biolabs). This plasmid was transformed into E. coli BL21 (DE3) for protein overexpression. Overnight culture of a single transformant (5 mL) was added to 500 mL of fresh LB medium containing […] ampicillin. The cells were grown to an OD600 of 0.6 and added with 1 mM isopropyl-β-thiogalactopyranoside for further 20 h incubation at 16 °C for recombinant protein production. The cells were harvested by centrifugation at 7000× g for 15 min.
Purification of the maltose-binding protein (MBP)-tagged TMPRSS2 was conducted at 4 °C. The cell paste obtained from the cell culture (1 L) was suspended in a lysis buffer (40 mL) containing 25 mM Tris-HCl (pH 7.5) and 150 mM NaCl. To disrupt the cells, a French press was used. The cell-free extract was loaded onto a 10 mL amylose resin column (New England Biolabs, Ipswich, MA, USA) equilibrated with the lysis buffer. The column was washed with 10 column volumes of lysis buffer, and then the MBP-tagged TMPRSS2 bound to the amylose resin was eluted with the elution buffer (25 mM Tris, pH 7.5, 150 mM NaCl, and 10 mM maltose).
For assaying the inhibition of the purified MBP-tagged TMPRSS2 (residues 256-492) activity, a fluorogenic peptide substrate, Boc-Gln-Ala-Arg-AMC, was used with excitation at 355 nm and emission at 460 nm. The enzyme (0.22 μM) was preincubated in the presence or absence of various concentrations of inhibitors in 20 mM HEPES and pH 7.5 assay buffer for 10 min in black 96-well immuno plates (Thermo Scientific). Next, the fluorescent substrate (10 μM) was added and incubated for 60 min at room temperature. The reactions were monitored by using a fluorescence plate reader (Fluoroskan Ascent, Thermo Labsystems, Franklin, MA, USA). The initial velocities of the inhibited reactions were plotted against the different inhibitor concentrations to yield the IC50 value by fitting with the equation A(I) = A(0) × {1 − [I/(I + IC50)]}. In this equation, A(I) is the enzyme activity with inhibitor concentration I, and A(0) is the enzyme activity without an inhibitor. For each data point, the measurements were repeated thrice to yield the mean and standard deviation.

The target of the next data set is SARS-CoV-2 3CL^pro (Severe acute respiratory syndrome coronavirus 2, UniProt P0DTD1). The experiment in a line: biochemical.
A further data set concerns SARS-CoV-2. The experiment in a line: Plaque reduction assay in Vero E6 cells. The format is cell-based. Conditions: 120 h. For orientation: Plaque reduction counts the foci of infection that form in a cell layer.
The test system of data set [1] is Vero E6 cells. The experiment in a line: Cytotoxicity seen in the plaque reduction assay. Conditions: Figure 7b, seen at 0.2 μM.
Data set [2] addresses spike RBD–ACE2 interaction (wild-type) (Severe acute respiratory syndrome coronavirus 2, UniProt P0DTC2). Type of data set: cell-based, SARS-CoV-2. Conditions: RBD attachment assay.
For data set [3] the following is noted: cited from earlier work.
For data set [4], the system named is Vero E6 cells.
Where [5] appears, read: 75 nM PL^pro, 10 μM z-Arg-Leu-Arg-Gly-Gly-AMC, pH 7.5, read-out: IC50.
Setting [6] is: 0.22 μM MBP-tagged TMPRSS2 (residues 256-492), 10 μM Boc-Gln-Ala-Arg-AMC, read-out: IC50.

Each structure is given as a SMILES string. Entries after “also recorded” stand apart in the source; their conditions may differ. Where two headings read alike, the source gives them in different places. *1 amine or outer side, *2 acyl side, *3 side chain or, on linkers, in order; H or OH if unused. Where a SMILES comes first, the peptide text is derived from it. Bridges are numbered along the chain shown (N, C = ends). Roman numbers before positions name the chains, in order. [ ]: non-standard residue; d: D form. Actinocin(9to1) = Cc1c2oc3c(C)ccc(C(=O)[*:1])c3nc-2c(C(=O)[*:2])c(N)c1=O; NMeV = CN[C@H](C(=O)O)C(C)C; Sar = CNCC(=O)O

What is called IC50 is the concentration needed to halve the response being measured. One may read the half-life as how long it takes for the measured level to halve.

As for `CN(C)C/C=C/C(=O)Nc1cc2c(Nc3ccc(F)c(Cl)c3)ncnc2cc1O[C@H]1CCOC1` [Afatinib], the IC50 at SARS-CoV-2 PL^pro (setting [5]) was 45.6 ± 4.2 µM; on human TMPRSS2, 28.4 ± 1.5 µM.

Take `Cc1c2oc3c(C)ccc(C(=O)N[C@@H]4C(=O)N[C@H](C(C)C)C(=O)N5CCC[C@H]5C(=O)N(C)CC(=O)N(C)[C@@H](C(C)C)C(=O)O[C@@H]4C)c3nc-2c(C(=O)N[C@@H]2C(=O)N[C@H](C(C)C)C(=O)N3CCC[C@H]3C(=O)N(C)CC(=O)N(C)[C@@H](C(C)C)C(=O)O[C@@H]2C)c(N)c1=O` [Dactinomycin] (I: T[dV]P[Sar][NMeV] / II: T[dV]P[Sar][NMeV]; ester I:1-I:C, II:1-II:C; linker I:N-II:N via Actinocin(9to1)): the IC50 at SARS-CoV-2 PL^pro (setting [5]) amounted to 14.7 ± 2.6 µM; on SARS-CoV-2 3CL^pro (35 nM 3CL^pro, 6 μM fluorogenic substrate, pH 7.0, read-out: IC50) it was 37.6 ± 2.8 µM.

`COc1cccc2c1C(=O)c1c(O)c3c(c(O)c1C2=O)C[C@@](O)(C(=O)CO)C[C@@H]3O[C@H]1C[C@H](N)[C@H](O)[C@H](C)O1` [Doxorubicin]: the IC50 at SARS-CoV-2 PL^pro was 4.6 ± 0.8 µM; on human TMPRSS2 (setting [6]), 8.2 ± 1.6 µM. Moreover, the “antiviral activity in plaque reduction assay” value with SARS-CoV-2 (10 μM) is “did not effectively inhibit the replication and infection of the virus”.

Regarding `CCN(CC)CCCC(C)Nc1c2ccc(Cl)cc2nc2ccc(OC)cc12` (centres unmarked) [Mepacrine], the half-maximal inhibitory concentration (IC50) amounted to 4.4 ± 0.9 µM against SARS-CoV-2 PL^pro and 29.9 ± 3.7 µM at human TMPRSS2 (setting [6]).

With `CCOc1cc2ncc(C#N)c(Nc3ccc(OCc4ccccn4)c(Cl)c3)c2cc1NC(=O)/C=C/CN(C)C` [Neratinib], the IC50 came out at 11.6 ± 2.9 µM on SARS-CoV-2 PL^pro (setting [5]) and 25.9 ± 3.2 µM at human TMPRSS2 (setting [6]).

On to `O=C(Nc1ccc([N+](=O)[O-])cc1Cl)c1cc(Cl)ccc1O` [Niclosamide], for which the concentration for half-maximal inhibition (IC50) came out at 16.6 ± 1.8 µM against SARS-CoV-2 PL^pro and 18.7 ± 0.9 µM at SARS-CoV-2 3CL^pro. The cytotoxicity entry with Vero E6 cells [1] is “cells appeared broken into tiny particles, revealing the cytotoxicity; also recorded: high cytotoxicity”. Besides, the “antiviral activity in plaque reduction assay” value with SARS-CoV-2 (0.2 μM) was “demonstrated antiviral property”.

Regarding `CO[C@H]1C[C@@H]2CC[C@@H](C)[C@@](O)(O2)C(=O)C(=O)N2CCCC[C@H]2C(=O)O[C@H]([C@H](C)C[C@@H]2CC[C@@H](O)[C@H](OC)C2)CC(=O)[C@H](C)/C=C(\C)[C@@H](O)[C@@H](OC)C(=O)[C@H](C)C[C@H](C)/C=C/C=C/C=C/1C` [Rapamycin], the IC50 on SARS-CoV-2 PL^pro (setting [5]) amounted to 31 ± 2.4 µM. Moreover, the “inhibition of TMPRSS2 (in words)” value against human TMPRSS2 (IC50 threshold 50 μM) is recorded as “did not inhibit”. Also, the “inhibition of RBD–ACE2 interplay (in words)” value in data set [2] is “could not efficiently inhibit the interplay between the RBD and ACE2”. Further, the “antiviral activity in plaque reduction assay” value in the data set on SARS-CoV-2 (20 μM) was “did not exert a significant effect on the inhibition of viral infection”.

On to `CC/C(=C(\c1ccccc1)c1ccc(OCCN(C)C)cc1)c1ccccc1` [Tamoxifen], for which, in data set [3], the half-life is 5 to 7 days. Further, inhibition against human TMPRSS2 was half-maximal at 21.4 ± 1.6 µM (IC50). Further, the cytotoxicity entry in the data set on Vero E6 cells [4] is listed as “without apparent cytotoxicity”. Further, in the data set on SARS-CoV-2 (10 μM), the “antiviral activity in plaque reduction assay” value is given as “robustly protected cells from the viral infection”.
